In patent US20120270237A9, “METHODS FOR THE IDENTIFICATION OF KINASE INTERACTING MOLECULES AND FOR THE PURIFICATION OF KINASE PROTEINS” (Cellzone AG, priority 2009, published 2012) one finds Competition % and inhibition data, which are given here for 1 molecule.

Holding throughout (experiment): Kinobeads competition binding, L-363 cell lysate
Holding throughout (parameters): endogenous in cells
What all share (settings): 10 μM free compound, L-363 lysate

In assay [1] the target is CDK2 (Homo sapiens, UniProt P24941). As to the method:
(§1) To one aliquot of cell lysate 10 μM of the free compound (FIG. 3, CZC31326) was added and allowed to bind to proteins in the lysate. Then the affinity matrix with the immobilized compound was added to capture proteins that were not interacting with the previously added free compound. Beads were separated from the lysate and bead bound proteins were eluted in SDS sample buffer and subsequently separated by SDS-Polyacrylamide gel electrophoresis (FIG. 8). Suitable gel bands were cut out and subjected to in-gel proteolytic digestion with trypsin. The second lysate aliquot was processed identically, however no free compound was added (DMSO solvent control). Peptides originating from samples 1 and 2 were labeled with iTRAQ reagents (iTRAQ 114 and iTRAQ 117) and the combined samples were analyzed with a nano-flow liquid chromatography system coupled online to a tandem mass spectrometer (LC-MS/MS) experiment followed by iTRAQ reporter ion quantification in the MS/MS spectra as described in Example 2.
(§2) For this experiment the human plasma cell leukaemia line L-363 was used (German Collection of Microorganisms and Cell Cultures, DSMZ number ACC49, Braunschweig, Germany). Cells were treated for three hours with 20 μM of the proteasome inhibitor MG132 (Z-Leu-Leu-Leu-al, Sigma C2211) prior to cell harvesting.

For assay [2], the target named is MPSK1 (Homo sapiens, UniProt O75716). As to the method:
as §1, §2

The target of assay [3] is PYK2 (Homo sapiens, UniProt Q14289). As to the method: as §1, §2
For assay [4], the target named is MAP2K3 (Homo sapiens, UniProt P46734). As to the method: as §1, §2
Assay [5] addresses T1, PHKg2 (Homo sapiens, UniProt P15735).
T1 sequence (P15735 1-406): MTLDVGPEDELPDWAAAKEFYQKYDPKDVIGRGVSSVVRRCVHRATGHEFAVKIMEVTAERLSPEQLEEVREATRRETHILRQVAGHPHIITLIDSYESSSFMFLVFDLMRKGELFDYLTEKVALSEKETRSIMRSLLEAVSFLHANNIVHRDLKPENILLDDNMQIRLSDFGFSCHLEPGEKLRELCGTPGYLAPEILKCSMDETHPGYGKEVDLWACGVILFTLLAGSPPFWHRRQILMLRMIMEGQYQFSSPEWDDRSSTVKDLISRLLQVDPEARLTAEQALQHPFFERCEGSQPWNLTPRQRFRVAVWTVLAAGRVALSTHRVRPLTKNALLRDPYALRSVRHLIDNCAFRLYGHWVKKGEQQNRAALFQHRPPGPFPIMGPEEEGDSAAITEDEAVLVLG
How it is done:
as §1, §2

Assay [6] has as its target Erk1 (Homo sapiens, UniProt P27361). How it is done: as §1, §2
In assay [7] the target is T2, PIP5K2C (Homo sapiens, UniProt Q8TBX8).
T2 sequence (Q8TBX8 1-421): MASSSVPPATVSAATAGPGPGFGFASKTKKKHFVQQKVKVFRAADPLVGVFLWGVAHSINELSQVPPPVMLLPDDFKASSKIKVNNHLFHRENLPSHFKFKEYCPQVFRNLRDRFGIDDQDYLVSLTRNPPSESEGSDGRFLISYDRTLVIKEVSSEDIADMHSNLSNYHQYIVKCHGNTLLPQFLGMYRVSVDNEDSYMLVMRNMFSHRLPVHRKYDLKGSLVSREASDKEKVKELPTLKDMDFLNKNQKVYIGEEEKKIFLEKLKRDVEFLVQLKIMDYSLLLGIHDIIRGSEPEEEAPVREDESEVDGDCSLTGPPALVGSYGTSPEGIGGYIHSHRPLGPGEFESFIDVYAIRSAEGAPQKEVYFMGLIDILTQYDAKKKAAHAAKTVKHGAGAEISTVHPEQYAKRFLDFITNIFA
How it is done:
as §1, §2

Assay [8] has as its target RSK2 (Homo sapiens, UniProt P51812). How it is done: as §1, §2
The target in assay [9] is T3, PKD2 (Homo sapiens, UniProt Q9BZL6).
T3 sequence (Q9BZL6 1-878): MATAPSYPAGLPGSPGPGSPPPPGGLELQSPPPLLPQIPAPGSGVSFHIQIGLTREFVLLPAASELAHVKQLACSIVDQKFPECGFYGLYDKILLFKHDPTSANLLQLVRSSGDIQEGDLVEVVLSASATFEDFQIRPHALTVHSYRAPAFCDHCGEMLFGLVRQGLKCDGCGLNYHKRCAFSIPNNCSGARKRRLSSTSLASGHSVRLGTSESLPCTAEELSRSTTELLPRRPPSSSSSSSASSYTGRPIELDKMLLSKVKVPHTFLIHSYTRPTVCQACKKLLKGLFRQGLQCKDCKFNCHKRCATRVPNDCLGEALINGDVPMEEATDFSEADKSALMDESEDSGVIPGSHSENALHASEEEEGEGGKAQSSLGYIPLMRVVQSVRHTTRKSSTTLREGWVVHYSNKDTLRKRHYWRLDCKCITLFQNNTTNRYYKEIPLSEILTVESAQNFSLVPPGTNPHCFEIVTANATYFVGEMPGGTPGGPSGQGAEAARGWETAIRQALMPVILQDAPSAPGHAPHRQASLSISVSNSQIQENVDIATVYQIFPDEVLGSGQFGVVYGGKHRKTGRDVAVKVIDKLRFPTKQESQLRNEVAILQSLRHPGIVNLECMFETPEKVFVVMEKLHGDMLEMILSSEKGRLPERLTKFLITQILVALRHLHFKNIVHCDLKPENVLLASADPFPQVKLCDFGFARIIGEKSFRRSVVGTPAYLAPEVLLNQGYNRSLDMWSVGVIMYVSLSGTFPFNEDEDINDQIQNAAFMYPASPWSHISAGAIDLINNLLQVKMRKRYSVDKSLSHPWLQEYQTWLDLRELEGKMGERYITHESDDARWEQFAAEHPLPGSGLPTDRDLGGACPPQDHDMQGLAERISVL
As to the method: as §1, §2

Assay [10] deals with GSK3A (Homo sapiens, UniProt P49840). How it is done:
as §1, §2

In assay [11] the target is MST2 (Homo sapiens, UniProt Q13188). How it is done:
as §1, §2

Assay [12] concerns the target PKN1 (Homo sapiens, UniProt Q16512). As to the method:
as §1, §2

What is called inhibition is the relative decrease from the control value, in per cent.

Chain of RSK2 (P51812 whole entry): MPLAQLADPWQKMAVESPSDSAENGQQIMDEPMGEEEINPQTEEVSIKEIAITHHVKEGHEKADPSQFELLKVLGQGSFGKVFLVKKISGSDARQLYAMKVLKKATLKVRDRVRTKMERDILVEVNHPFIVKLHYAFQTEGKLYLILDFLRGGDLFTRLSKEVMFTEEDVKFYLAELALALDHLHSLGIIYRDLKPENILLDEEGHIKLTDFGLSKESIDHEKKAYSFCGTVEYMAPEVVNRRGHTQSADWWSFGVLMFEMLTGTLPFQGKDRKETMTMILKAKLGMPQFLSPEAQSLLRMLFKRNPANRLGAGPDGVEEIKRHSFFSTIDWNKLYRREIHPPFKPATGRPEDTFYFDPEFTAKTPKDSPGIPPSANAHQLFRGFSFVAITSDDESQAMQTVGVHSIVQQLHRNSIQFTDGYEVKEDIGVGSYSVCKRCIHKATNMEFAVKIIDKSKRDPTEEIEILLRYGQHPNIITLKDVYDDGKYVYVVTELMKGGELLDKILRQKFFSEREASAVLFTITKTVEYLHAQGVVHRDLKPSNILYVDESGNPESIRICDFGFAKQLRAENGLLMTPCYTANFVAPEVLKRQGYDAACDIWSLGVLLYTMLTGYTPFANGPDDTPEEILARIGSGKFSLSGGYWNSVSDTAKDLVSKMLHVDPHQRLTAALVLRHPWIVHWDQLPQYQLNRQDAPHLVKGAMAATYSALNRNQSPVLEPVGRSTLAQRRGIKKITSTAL
Chain of MPSK1 (O75716 whole entry): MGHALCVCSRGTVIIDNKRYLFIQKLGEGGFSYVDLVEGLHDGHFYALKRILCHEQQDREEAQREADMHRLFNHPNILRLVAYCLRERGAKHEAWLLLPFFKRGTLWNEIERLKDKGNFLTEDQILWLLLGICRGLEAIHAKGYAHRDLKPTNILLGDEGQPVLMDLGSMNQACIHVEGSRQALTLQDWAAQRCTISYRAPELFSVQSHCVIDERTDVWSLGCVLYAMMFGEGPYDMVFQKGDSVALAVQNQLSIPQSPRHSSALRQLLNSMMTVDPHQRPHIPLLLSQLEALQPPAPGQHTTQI
Chain of GSK3A (P49840 whole entry): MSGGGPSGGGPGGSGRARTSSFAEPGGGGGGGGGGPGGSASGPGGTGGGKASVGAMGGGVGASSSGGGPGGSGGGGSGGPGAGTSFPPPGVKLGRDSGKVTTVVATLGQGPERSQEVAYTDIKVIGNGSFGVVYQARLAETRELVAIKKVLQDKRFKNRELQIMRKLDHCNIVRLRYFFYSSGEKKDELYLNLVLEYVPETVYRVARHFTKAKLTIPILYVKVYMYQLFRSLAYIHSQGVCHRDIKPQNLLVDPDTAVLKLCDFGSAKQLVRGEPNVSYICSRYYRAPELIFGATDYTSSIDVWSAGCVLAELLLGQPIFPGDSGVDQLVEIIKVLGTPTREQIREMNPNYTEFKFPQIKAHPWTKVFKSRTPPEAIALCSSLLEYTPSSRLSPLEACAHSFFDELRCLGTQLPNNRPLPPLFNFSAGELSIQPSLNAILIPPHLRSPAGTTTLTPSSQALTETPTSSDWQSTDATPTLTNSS
Chain of PYK2 (Q14289 whole entry): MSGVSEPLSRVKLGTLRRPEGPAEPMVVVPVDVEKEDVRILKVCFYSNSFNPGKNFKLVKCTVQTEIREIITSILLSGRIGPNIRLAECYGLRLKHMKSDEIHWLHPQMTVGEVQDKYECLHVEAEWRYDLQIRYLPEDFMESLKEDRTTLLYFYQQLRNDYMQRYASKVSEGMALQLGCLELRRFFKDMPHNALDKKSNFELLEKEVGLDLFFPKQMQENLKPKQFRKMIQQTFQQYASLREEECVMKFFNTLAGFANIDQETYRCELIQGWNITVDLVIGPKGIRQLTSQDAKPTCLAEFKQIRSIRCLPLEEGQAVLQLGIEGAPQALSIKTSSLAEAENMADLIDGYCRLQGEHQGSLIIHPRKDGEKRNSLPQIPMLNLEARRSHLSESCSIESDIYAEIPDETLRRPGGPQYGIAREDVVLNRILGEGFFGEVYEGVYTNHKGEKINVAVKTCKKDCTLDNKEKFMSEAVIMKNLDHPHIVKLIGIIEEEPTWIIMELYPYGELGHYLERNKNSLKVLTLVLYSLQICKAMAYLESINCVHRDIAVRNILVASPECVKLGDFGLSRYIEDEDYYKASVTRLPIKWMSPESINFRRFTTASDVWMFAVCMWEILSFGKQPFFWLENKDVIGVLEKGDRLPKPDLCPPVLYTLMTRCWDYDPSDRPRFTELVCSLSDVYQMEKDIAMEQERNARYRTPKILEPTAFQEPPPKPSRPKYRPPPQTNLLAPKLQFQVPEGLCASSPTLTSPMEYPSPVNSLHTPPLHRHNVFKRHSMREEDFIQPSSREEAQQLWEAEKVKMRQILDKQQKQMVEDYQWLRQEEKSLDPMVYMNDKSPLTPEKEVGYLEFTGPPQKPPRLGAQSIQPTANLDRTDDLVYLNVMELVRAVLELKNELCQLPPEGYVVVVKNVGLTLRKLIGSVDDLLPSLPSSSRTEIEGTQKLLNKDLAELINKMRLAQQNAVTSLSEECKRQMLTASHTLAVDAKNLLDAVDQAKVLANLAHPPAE
Chain of MST2 (Q13188 whole entry): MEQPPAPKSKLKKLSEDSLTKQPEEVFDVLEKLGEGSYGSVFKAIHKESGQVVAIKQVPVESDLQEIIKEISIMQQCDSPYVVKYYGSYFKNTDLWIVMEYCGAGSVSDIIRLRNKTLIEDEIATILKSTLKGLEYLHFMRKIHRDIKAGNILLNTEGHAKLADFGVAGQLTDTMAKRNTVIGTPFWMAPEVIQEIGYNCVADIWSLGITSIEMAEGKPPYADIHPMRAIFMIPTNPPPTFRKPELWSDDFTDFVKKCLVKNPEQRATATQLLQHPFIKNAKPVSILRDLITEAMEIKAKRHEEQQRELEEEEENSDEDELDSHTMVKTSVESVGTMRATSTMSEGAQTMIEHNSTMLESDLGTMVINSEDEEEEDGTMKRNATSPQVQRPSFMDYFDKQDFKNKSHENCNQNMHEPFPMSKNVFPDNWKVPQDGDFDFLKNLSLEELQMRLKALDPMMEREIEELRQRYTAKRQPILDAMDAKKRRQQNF
Chain of MAP2K3 (P46734 whole entry): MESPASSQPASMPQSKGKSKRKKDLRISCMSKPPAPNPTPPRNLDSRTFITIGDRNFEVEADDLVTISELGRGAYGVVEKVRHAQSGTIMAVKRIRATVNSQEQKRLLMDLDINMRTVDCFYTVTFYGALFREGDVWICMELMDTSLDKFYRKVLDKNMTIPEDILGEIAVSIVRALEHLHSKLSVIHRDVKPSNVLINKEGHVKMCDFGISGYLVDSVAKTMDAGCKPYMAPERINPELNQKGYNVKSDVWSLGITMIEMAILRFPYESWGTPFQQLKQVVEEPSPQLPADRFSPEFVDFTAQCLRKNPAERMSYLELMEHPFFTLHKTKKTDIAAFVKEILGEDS
Chain of PKN1 (Q16512 whole entry): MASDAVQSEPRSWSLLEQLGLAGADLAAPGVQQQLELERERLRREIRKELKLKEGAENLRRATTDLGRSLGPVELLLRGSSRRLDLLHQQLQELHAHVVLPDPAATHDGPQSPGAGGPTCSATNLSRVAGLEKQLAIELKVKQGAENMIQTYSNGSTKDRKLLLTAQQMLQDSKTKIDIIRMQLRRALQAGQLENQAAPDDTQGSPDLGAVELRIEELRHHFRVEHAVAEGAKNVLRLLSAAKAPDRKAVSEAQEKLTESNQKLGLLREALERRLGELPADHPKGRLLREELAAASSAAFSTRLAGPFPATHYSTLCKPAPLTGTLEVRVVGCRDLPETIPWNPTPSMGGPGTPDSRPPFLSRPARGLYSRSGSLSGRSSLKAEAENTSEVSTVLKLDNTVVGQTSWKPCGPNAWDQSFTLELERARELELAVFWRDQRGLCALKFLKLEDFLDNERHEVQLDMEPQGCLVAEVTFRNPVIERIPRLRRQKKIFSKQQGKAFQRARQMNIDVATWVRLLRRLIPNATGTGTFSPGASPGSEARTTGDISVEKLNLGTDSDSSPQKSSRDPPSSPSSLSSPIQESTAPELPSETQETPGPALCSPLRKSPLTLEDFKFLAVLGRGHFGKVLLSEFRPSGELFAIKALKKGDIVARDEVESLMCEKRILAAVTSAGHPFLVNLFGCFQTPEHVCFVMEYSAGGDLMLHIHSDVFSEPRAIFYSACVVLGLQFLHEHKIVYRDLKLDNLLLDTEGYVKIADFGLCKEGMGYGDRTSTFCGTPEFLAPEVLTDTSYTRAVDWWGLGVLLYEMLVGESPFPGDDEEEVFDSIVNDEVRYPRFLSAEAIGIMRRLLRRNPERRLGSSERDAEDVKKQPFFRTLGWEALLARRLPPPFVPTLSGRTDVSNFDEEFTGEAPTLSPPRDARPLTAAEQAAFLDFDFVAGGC
Chain of Erk1 (P27361 whole entry): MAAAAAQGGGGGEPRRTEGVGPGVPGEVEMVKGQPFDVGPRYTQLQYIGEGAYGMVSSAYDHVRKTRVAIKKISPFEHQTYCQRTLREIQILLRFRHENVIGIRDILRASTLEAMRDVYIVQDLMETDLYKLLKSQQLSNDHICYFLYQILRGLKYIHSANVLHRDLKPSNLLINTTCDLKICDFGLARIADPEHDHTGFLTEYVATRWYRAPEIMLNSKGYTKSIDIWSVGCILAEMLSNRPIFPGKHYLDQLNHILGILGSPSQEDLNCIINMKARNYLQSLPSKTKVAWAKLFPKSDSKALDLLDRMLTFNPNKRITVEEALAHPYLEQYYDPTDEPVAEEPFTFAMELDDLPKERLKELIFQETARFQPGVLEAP

`CS(=O)(=O)Nc1ccccc1Nc1nc(Nc2cccc(OCCN)c2)ncc1Cl` [CZC31326, N-(2-(2-(3-(2-aminoethoxy)phenylamino)-5-chloropyrimidin-4-ylamino)phenyl)methanesulfonamide] gave a Competition % in [1] of 95.2%. Further, the inhibition at 10 µM in assay [2] stood at 93.3%; in assay [3] it was 96.1%; in [4], 93.9%; in [5], 94.1%; in [6], 83.2%; in assay [7] it was 92%. The inhibition at 10 µM worked out at 97.7% in [8]; 98% in assay [9]; 96.9% in assay [10]; 98.2% in assay [11]; 95.9% in assay [12].
